The values that follow come from patent US10647680B2, “Urea compound, preparation method therefor and medical use thereof” (Ancureall Pharmaceutical (Shanghai) Co., Ltd., priority 2016, dated 2020).

The subject of experiment [1] is KG-1 (expressing FGFR1OP2-FGFR1 fusion protein). Description: In vitro growth inhibition (GI50), KG-1. The format is cell-based. The settings on record: Homo sapiens; Cell lines of leukemia; read-out: GI 50 KG-1 FGFR1OP 2-FGFR1.
Experiment [2] has as its system Kasumi-1 (c-Kit N822K mutant type). Description: In vitro growth inhibition (GI50), Kasumi-1. The experiment is classed as cell-based. The settings on record: Homo sapiens, Cell lines of leukemia, read-out: GI 50 Kasumi-1 Kit (N822K). The gist of the method:
(§1)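 After 3–5 days of treatment (top concentration 5,000 nM, serially diluted 2- or 10-fold to 0.01 nM, solvent ≤1%), viability was read by CCK8 at OD450. Growth rate was normalised to the time-zero and solvent-control wells, and GI50 was derived from the curve. Cultures in RPMI1640 + 10% FBS.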

Experiment [3] deals with RAMOS (positive expression of Brutons tyrosine protein kinase). Description: In vitro growth inhibition (GI50), RAMOS. The format is cell-based. Conditions: Homo sapiens, Cell lines of leukemia, read-out: GI 50 Ramos BTK.
In experiment [4] the test system is MOLM-13 (FLT3 ITD+/− mutant type). Description: In vitro growth inhibition (GI50), MOLM-13. The format is cell-based, human. Conditions: Homo sapiens, MOLM-13; Cell lines of leukemia; read-out: GI 50 MOLM-13 FLT3 (ITD+/−).
The test system of another experiment is HL-60 (FLT3 wild type). Description: In vitro growth inhibition (GI50), HL-60. The format is cell-based. Conditions: Homo sapiens, Cell lines of leukemia, read-out: GI 50 HL60 FLT3 (WT). The gist of the method:
as §1

Experiment [5] deals with K562 (FLT3 negative expression, positive expression of BCR-ABL fusion protein). Description: In vitro growth inhibition (GI50), K562. The format is cell-based. The settings on record: Homo sapiens, Cell lines of leukemia, read-out: GI 50 K562 BCR-ABL.
The next experiment relates to RS4; 11 (FLT3 wild type). Description: In vitro growth inhibition (GI50), RS4; 11. The format is cell-based, human. The settings on record: Homo sapiens, RS4-11; Cell lines of leukemia; read-out: GI 50 RS4: 11 FLT3 (WT).
The subject of the next experiment is U937 (FLT3 wild-type). Description: In vitro growth inhibition (GI50), U937. Conditions: Homo sapiens, U-937; Cell lines of leukemia; read-out: GI 50 U937 FLT 3(WT). The format is cell-based.
In experiment [6] the test system is OCI-AML3 (NPMc+ mutant type). Description: In vitro growth inhibition (GI50), OCI-AML3. The format is cell-based. The settings on record: Homo sapiens, OCI-AML-3; Cell lines of leukemia; read-out: GI 50 OCI- AML3 NPMc+.
Experiment [7] deals with MV4-11 (FLT3 ITD+/+ mutant type). Description: In vitro growth inhibition (GI50), MV4-11. The experiment is classed as cell-based, human. The settings on record: Homo sapiens, MV4-11; Cell lines of leukemia; read-out: GI 50 MV4-11 FLT3 (ITD +/+).

Consider `CC(C)(C)c1cc(NC(=O)Nc2ccc(-n3cnc4cc(OC(F)(F)F)ccc43)cc2)[nH]n1` [Compound 84, 1-(5-tert-butyl-2H-pyrazol-3-yl)-3-[4-(5-trifluoromethoxy-benzimidazol-1-yl)-phenyl]-urea], for which the GI50 in experiment [1] is over 1000 nM; in experiment [2], over 1000 nM; in experiment [3], over 1000 nM; in [4] it was 0.1 to 1 nM; with HL-60 (FLT3 wild type), over 1000 nM; in experiment [5], over 1000 nM. The GI50 in the experiment with RS4; 11 (FLT3 wild type) was over 1000 nM; in the experiment with U937 (FLT3 wild-type) it was over 1000 nM; in experiment [6] it was over 1000 nM; in experiment [7], 0.1 to 1 nM.

As for `CC(C)(C)c1cc(NC(=O)Nc2ccc(-n3nnc4ccccc43)cc2)no1` [Compound 48, 1-(4-benzotriazol-1-yl-phenyl)-3-(5-tert-butyl-isoxazol-3-yl)-urea], the GI50 in experiment [1] was over 1000 nM; in [2], over 1000 nM; in [3], over 1000 nM; in experiment [4], 100 to 1000 nM; in the experiment on HL-60 (FLT3 wild type) it was over 1000 nM; in [5] it was over 1000 nM. In addition, the GI50 is over 1000 nM in the experiment with RS4; 11 (FLT3 wild type), over 1000 nM with U937 (FLT3 wild-type), over 1000 nM in [6] and 100 to 1000 nM in [7].

In the case of `CC(C)(C)c1cc(NC(=O)Nc2ccc(-n3cnc4cc(C(F)(F)F)ccc43)cc2)no1` [Compound 23, 1-(5-tert-butyl-isoxazol-3-yl)-3-[4-(5-trifluoromethyl-benzimidazol-1-yl)-phenyl]-urea], the GI50 in [1] is over 1000 nM; in experiment [2], over 1000 nM; in [3], over 1000 nM; in [4] it was 1 to 10 nM; in the experiment on HL-60 (FLT3 wild type), over 1000 nM; in experiment [5] it was 100 to 1000 nM. Besides, the GI50 in the experiment with RS4; 11 (FLT3 wild type) is 100 to 1000 nM; with U937 (FLT3 wild-type), over 1000 nM; in [6] it was over 1000 nM; in [7] it was 1 to 10 nM.

On to `CC(C)(C)c1cc(NC(=O)Nc2ccc(-n3cnc4cc(OCC5CCCO5)ccc43)cc2)[nH]n1` (centres unmarked) [Compound 86, 1-(5-tert-butyl-2H-pyrazol-3-yl)-3-{4-[5-(tetrahydrofuran-2-ylmethoxy)-benzimidazol-1-yl]-phenyl}-urea], for which the GI50 in experiment [1] was over 1000 nM; in [2], over 1000 nM; in [3], over 1000 nM; in experiment [4], 0.1 to 1 nM; with HL-60 (FLT3 wild type) it was 100 to 1000 nM; in experiment [5], over 1000 nM. For the same compound, the GI50 is over 1000 nM with RS4; 11 (FLT3 wild type), over 1000 nM with U937 (FLT3 wild-type), over 1000 nM in experiment [6] and 0.1 to 1 nM in experiment [7].

On to `COc1ccc2ncn(-c3ccc(NC(=O)Nc4cc(C(C)(C)C)on4)cc3)c2c1` [Compound 25, 1-(5-tert-butyl-isoxazol-3-yl)-3-[4-(6-methoxyl-benzimidazol-1-yl)-phenyl]-urea], for which the GI50 in experiment [1] is over 1000 nM; in experiment [2], over 1000 nM; in [3], over 1000 nM; in [4], 0.1 to 1 nM; in the experiment on HL-60 (FLT3 wild type), over 1000 nM; in [5] it was over 1000 nM. Also, the GI50 is over 1000 nM in the experiment on RS4; 11 (FLT3 wild type), over 1000 nM in the experiment on U937 (FLT3 wild-type), over 1000 nM in [6] and 0.1 to 1 nM in experiment [7].

In the case of `Cc1cc(F)cc2ncn(-c3ccc(NC(=O)Nc4cc(C(C)(C)C)on4)cc3)c12` [Compound 33, 1-(5-tert-butyl-isoxazol-3-yl)-3-[4-(5-fluoro-7-methyl-benzimidazol-1-yl)-phenyl]-urea], the GI50 in [1] was over 1000 nM; in experiment [2], over 1000 nM; in experiment [3], over 1000 nM; in experiment [4], 1 to 10 nM; with HL-60 (FLT3 wild type) it was 100 to 1000 nM; in experiment [5], over 1000 nM. The GI50 in the experiment with RS4; 11 (FLT3 wild type) is over 1000 nM; with U937 (FLT3 wild-type), over 1000 nM; in experiment [6], over 1000 nM; in experiment [7] it was 1 to 10 nM.

With `CC1(COc2ccc3c(c2)ncn3-c2ccc(NC(=O)Nc3cc(C(C)(C)C)on3)cc2)COC1` [Compound 9, 1-(5-tert-butyl-isoxazol-3-yl)-3-{4-[5-(3-methyl-oxetan-3-ylmethoxy)-benzimidazol-1-yl]-phenyl]urea], the GI50 in experiment [1] is over 1000 nM; in experiment [2], over 1000 nM; in experiment [3], over 1000 nM; in experiment [4], 0.1 to 1 nM; with HL-60 (FLT3 wild type), over 1000 nM; in experiment [5] it was over 1000 nM. For the same compound, the GI50 in the experiment on RS4; 11 (FLT3 wild type) was over 1000 nM; with U937 (FLT3 wild-type), over 1000 nM; in [6], over 1000 nM; in experiment [7], 0.1 to 1 nM.

In the case of `CN(C)CCOc1ccc2c(c1)ncn2-c1ccc(NC(=O)Nc2cc(C(C)(C)C)on2)cc1` [Compound 20, 1-(5-tert-butyl-isoxazol-3-yl)-3-{4-[5-(2-dimethylamino-ethoxyl)-benzimidazol-1-yl]-phenyl}-urea], the GI50 is over 1000 nM in [1]; over 1000 nM in experiment [2]; over 1000 nM in [3]; 0.1 to 1 nM in experiment [4]; over 1000 nM in the experiment with HL-60 (FLT3 wild type); over 1000 nM in experiment [5]. The GI50 in the experiment on RS4; 11 (FLT3 wild type) was over 1000 nM; in the experiment on U937 (FLT3 wild-type), over 1000 nM; in [6] it was over 1000 nM; in experiment [7], 0.1 to 1 nM.

Take `Cc1csc(NC(=O)Nc2ccc(-n3cnc4ccccc43)cc2)n1` [Compound 61, 1-(4-benzimidazol-1-yl-phenyl)-3-(4-methyl-thiazol-2-yl)-urea]: the GI50 (in experiment [1]; in experiment [2]; in experiment [3]; in experiment [4]; with HL-60 (FLT3 wild type); in experiment [5]) was over 1000 nM each time. In addition, the GI50 (with RS4; 11 (FLT3 wild type); in the experiment with U937 (FLT3 wild-type); in [6]; in [7]) was over 1000 nM in each case.

Take `CC(C)(C)c1cc(NC(=O)Nc2ccc(-n3ncc4cccc(F)c43)cc2)no1` [Compound 47, 1-(5-tert-butyl-isoxazol-3-yl)-3-[4-(7-fluoro-indazol-1-yl)-phenyl]-urea]: the GI50 is over 1000 nM in experiment [1]; over 1000 nM in [2]; over 1000 nM in experiment [3]; 100 to 1000 nM in experiment [4]; over 1000 nM in the experiment on HL-60 (FLT3 wild type); over 1000 nM in experiment [5]. In addition, the GI50 with RS4; 11 (FLT3 wild type) is over 1000 nM; with U937 (FLT3 wild-type), over 1000 nM; in experiment [6] it was over 1000 nM; in [7] it was 100 to 1000 nM.

Consider `CC(C)(C)c1cc(NC(=O)Nc2ccc(-n3cnc4cccnc43)cc2)no1` [Compound 50, 1-(5-tert-butyl-isoxazol-3-yl)-3-(4-imidazo[4,5-b]pyridin-3-yl-phenyl)-urea], for which the GI50 was over 1000 nM in experiment [1]; over 1000 nM in [2]; over 1000 nM in [3]; 0.1 to 1 nM in experiment [4]; over 1000 nM in the experiment on HL-60 (FLT3 wild type); over 1000 nM in [5]. In addition, the GI50 with RS4; 11 (FLT3 wild type) is over 1000 nM; in the experiment with U937 (FLT3 wild-type) it was over 1000 nM; in experiment [6], over 1000 nM; in [7] it was 0.1 to 1 nM.

As for `CC(C)(C)c1cc(N)n(C(=O)Nc2ccc(-n3cnc4cc(F)ccc43)cc2)n1` [Compound 125, 5-amino-3-tert-butyl-pyrazol-1-carboxylic acid [4-(5-fluoro-benzimidazol-1-yl)-phenyl]-amide], the GI50 in [1] is over 1000 nM; in [2], over 1000 nM; in experiment [3], over 1000 nM; in [4] it was 10 to 100 nM; with HL-60 (FLT3 wild type), over 1000 nM; in experiment [5], over 1000 nM. The GI50 in the experiment with RS4; 11 (FLT3 wild type) was over 1000 nM; in the experiment with U937 (FLT3 wild-type), over 1000 nM; in [6], over 1000 nM; in [7] it was 10 to 100 nM.

In the case of `CC(C)(C)c1cc(NC(=O)Nc2ccc(-n3cnc4c(F)cccc43)cc2)no1` [Compound 34, 1-(5-tert-butyl-isoxazol-3-yl)-3-[4-(4-fluoro-benzimidazol-1-yl)-phenyl]-urea], the GI50 was over 1000 nM in experiment [1]; over 1000 nM in experiment [2]; over 1000 nM in [3]; 0.1 to 1 nM in experiment [4]; over 1000 nM in the experiment with HL-60 (FLT3 wild type); over 1000 nM in experiment [5]. The GI50 in the experiment on RS4; 11 (FLT3 wild type) is over 1000 nM; in the experiment with U937 (FLT3 wild-type), over 1000 nM; in experiment [6] it was over 1000 nM; in experiment [7], 0.1 to 1 nM.

On to `CC(C)(C)c1cc(NC(=O)Nc2ccc(-n3cnc4cc(OCCN5CCCCCC5)ccc43)cc2)no1` [Compound 18, 1-{4-[5-(2-azepan-1-yl-ethoxyl)-benzimidazol-1-yl]-phenyl}3-(5-tert-butyl-isoxazole-3-yl)-urea], for which the GI50 in experiment [1] was 100 to 1000 nM; in [2], 100 to 1000 nM; in experiment [3], 100 to 1000 nM; in [4] it was 1 to 10 nM; in the experiment with HL-60 (FLT3 wild type), 100 to 1000 nM; in [5] it was over 1000 nM. Also, the GI50 with RS4; 11 (FLT3 wild type) was over 1000 nM; in the experiment on U937 (FLT3 wild-type) it was over 1000 nM; in experiment [6] it was over 1000 nM; in experiment [7], 1 to 10 nM.
